# PubChem BioAssay AID330 (DTP/NCI, 2004)
# Several values for one entry are separate records, joined by “and”; a condition that tells them apart may be missing. Identical values can stand only once. Toxic doses and inconclusive results are not listed.
# Test system: P388 leukemia ip, CD2F1 mice, survival T/C
# Assay: NCI In Vivo Anticancer Drug Screen. Data for tumor model P388 Leukemia (intraperitoneal) in CD2F1 (CDF1) mice
# Conditions: endpoint: median survival time, higher = longer survival
# Procedure, shortened: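 Mice carrying the transplanted tumor received test compound or vehicle. Survival was recorded in each group, and the value is the treated-group measurement divided by that of the vehicle-treated control group.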
# [1] = dose: 50.0 mg/kg/injection, schedule: Q01DX009 (ip), vehicle: saline
# [2] = dose: 100.0 mg/kg/injection, schedule: Q01DX009 (ip), vehicle: saline
# [3] = dose: 200.0 mg/kg/injection, schedule: Q01DX009 (ip), vehicle: saline
# [4] = dose: 50.0 mg/kg/injection, schedule: Q01DX005 (ip), vehicle: saline with Tween-80
# [5] = dose: 100.0 mg/kg/injection, schedule: Q01DX005 (ip), vehicle: saline with Tween-80
# [6] = dose: 200.0 mg/kg/injection, schedule: Q01DX005 (ip), vehicle: saline with Tween-80
# [7] = dose: 15.0 mg/kg/injection, schedule: Q01DX005 (ip), vehicle: saline with Tween-80
# [8] = dose: 30.0 mg/kg/injection, schedule: Q01DX005 (ip), vehicle: saline with Tween-80
# [9] = dose: 60.0 mg/kg/injection, schedule: Q01DX005 (ip), vehicle: saline with Tween-80
# [10] = dose: 120.0 mg/kg/injection, schedule: Q01DX005 (ip), vehicle: saline with Tween-80
# [11] = dose: 60.0 mg/kg/injection, schedule: Q01DX005 (ip), vehicle: Klucel (hydroxypropylcellulose) (HPC)
# [12] = dose: 120.0 mg/kg/injection, schedule: Q01DX005 (ip), vehicle: Klucel (hydroxypropylcellulose) (HPC)
# [13] = dose: 25.0 mg/kg/injection, schedule: Q01DX009 (ip), vehicle: saline with Tween-80
# [14] = dose: 100.0 mg/kg/injection, schedule: Q01DX009 (ip), vehicle: saline with Tween-80
# [15] = dose: 240.0 mg/kg/injection, schedule: Q01DX005 (ip), vehicle: saline with Tween-80
# [16] = dose: 100.0 mg/kg/injection, schedule: Q04DX003 (ip), vehicle: saline with Tween-80
# [17] = dose: 200.0 mg/kg/injection, schedule: Q04DX003 (ip), vehicle: saline with Tween-80
smiles,measurement,setting,value
CCSSC12CCCN1C(=O)C(C)N(C)C2=O (centres undefined),T/C,[1],105 % of control
same,T/C,[2],104 % of control
same,T/C,[3],111 % of control
Cc1ccc(S(=O)(=O)OCC(COS(=O)(=O)c2ccc(C)cc2)C(C)(C)C)cc1,T/C,[4],101 % of control
same,T/C,[5],104 % of control
same,T/C,[6],107 % of control
[Cu+2].[O-]/N=C/c1cccc(O)c1[O-].[O-]/N=C/c1cccc(O)c1[O-],T/C,"dose: 3.75 mg/kg/injection, schedule: Q01DX005 (ip), vehicle: saline with Tween-80",98 % of control
same,T/C,"dose: 7.5 mg/kg/injection, schedule: Q01DX005 (ip), vehicle: saline with Tween-80",100 % of control
same,T/C,[7],99 % of control and 104 % of control
same,T/C,[8],102 % of control
same,T/C,[9],99 % of control
same,T/C,[10],92 % of control
CCOC(=O)CCC(=O)Oc1cccc2c1C(=O)c1c(O)cccc1C2=O,T/C,[11],91 % of control
same,T/C,[12],95 % of control
same,T/C,"dose: 240.0 mg/kg/injection, schedule: Q01DX005 (ip), vehicle: Klucel (hydroxypropylcellulose) (HPC)",97 % of control
CCOC(=O)C(CCBr)SC (centres undefined),T/C,[13],99 % of control
same,T/C,"dose: 50.0 mg/kg/injection, schedule: Q01DX009 (ip), vehicle: saline with Tween-80",100 % of control
same,T/C,[14],99 % of control
CCC1(O)C[C@@]2(CCCCC2I)OC1=O (some centres undefined),T/C,[4],100 % of control
same,T/C,[5],103 % of control
same,T/C,[6],106 % of control
CCOC(=O)CCC(CC)NC(=O)c1ccc(N)cc1 (centres undefined),T/C,"dose: 12.5 mg/kg/injection, schedule: Q01DX009 (ip), vehicle: distilled water + Tween-80",93 % of control
same,T/C,"dose: 25.0 mg/kg/injection, schedule: Q01DX009 (ip), vehicle: distilled water + Tween-80",91 % of control
same,T/C,"dose: 50.0 mg/kg/injection, schedule: Q01DX009 (ip), vehicle: distilled water + Tween-80",98 % of control
same,T/C,"dose: 100.0 mg/kg/injection, schedule: Q01DX009 (ip), vehicle: distilled water + Tween-80",102 % of control
same,T/C,"dose: 200.0 mg/kg/injection, schedule: Q01DX009 (ip), vehicle: distilled water + Tween-80",106 % of control
Cc1cc2c(cc1C)NC1=C(N2)OC(c2ccccc2C)C1=O (centres undefined),T/C,[11],96 % of control
same,T/C,[12],106 % of control
CC(=Nc1ccccc1)C1=C(O)C(Cc2ccccc2)NC1=O (centres undefined),T/C,[13],106 % of control
COc1nc(SC)c(C#N)c(=O)[nH]1,T/C,[1],107 % of control
same,T/C,[2],98 % of control
same,T/C,[3],107 % of control
CCOC(=O)C1=C(O)c2ccccc2S(=O)(=O)N1C (tested in a mixture with another compound),T/C,[9],98 % of control
same,T/C,[10],107 % of control
same,T/C,[15],97 % of control
O=C1C=CCCCC1,T/C,"dose: 12.5 mg/kg/injection, schedule: Q01DX009 (ip), vehicle: saline + Tween-80 + alcohol",102 % of control
same,T/C,"dose: 25.0 mg/kg/injection, schedule: Q01DX009 (ip), vehicle: saline + Tween-80 + alcohol",98 % of control
same,T/C,"dose: 44.0 mg/kg/injection, schedule: Q01DX009 (ip), vehicle: saline with Tween-80",109 % of control
same,T/C,"dose: 50.0 mg/kg/injection, schedule: Q01DX009 (ip), vehicle: saline + Tween-80 + alcohol",100 % of control
same,T/C,"dose: 66.0 mg/kg/injection, schedule: Q01DX009 (ip), vehicle: saline with Tween-80",109 % of control
O=[N+]([O-])c1cc2c(cc1I)C1C(C3C2C2(Cl)C(Cl)=C(Cl)C3(Cl)C2(Cl)Cl)C2(Cl)C(Cl)=C(Cl)C1(Cl)C2(Cl)Cl (centres undefined),T/C,[1],108 % of control
same,T/C,[2],106 % of control
same,T/C,[3],106 % of control
O=C1CCC(CBr)(C(=O)O)O1 (centres undefined),T/C,[1],102 % of control
same,T/C,[2],111 % of control
same,T/C,[3],100 % of control
O=C(Cc1ccccc1)N1CCc2cc3c(cc2/C1=C/c1cc2c(cc1Br)OCO2)OCO3,T/C,"dose: 12.5 mg/kg/injection, schedule: Q01DX001 (ip), vehicle: saline + alcohol",100 % of control
same,T/C,"dose: 25.0 mg/kg/injection, schedule: Q01DX001 (ip), vehicle: saline + alcohol",99 % of control
same,T/C,"dose: 50.0 mg/kg/injection, schedule: Q01DX001 (ip), vehicle: saline + alcohol",100 % of control
COc1ccccc1C1C2CCCC(C2=O)C(c2ccccc2OC)N1C (centres undefined),T/C,"dose: 100.0 mg/kg/injection, schedule: Q04DX003 (ip), vehicle: saline",98 % of control
same,T/C,"dose: 200.0 mg/kg/injection, schedule: Q04DX003 (ip), vehicle: saline",99 % of control
same,T/C,"dose: 400.0 mg/kg/injection, schedule: Q04DX003 (ip), vehicle: saline",99 % of control
CN(C)c1ccc(C2c3c(oc4ccccc4c3=O)Oc3oc4ccccc4c(=O)c32)cc1,T/C,[7],98 % of control
same,T/C,[8],100 % of control
same,T/C,[9],89 % of control
COc1cc2nn(-c3ccccc3N)nc2cc1OC,T/C,[9],106 % of control
same,T/C,[10],100 % of control
same,T/C,[15],102 % of control
COc1cc2c(cc1C(C)c1ccc(O)cc1)OCO2 (centres undefined),T/C,"dose: 50.0 mg/kg/injection, schedule: Q01DX005 (ip), vehicle: distilled water + Tween-80",100 % of control
same,T/C,"dose: 100.0 mg/kg/injection, schedule: Q01DX005 (ip), vehicle: distilled water + Tween-80",97 % of control
same,T/C,"dose: 200.0 mg/kg/injection, schedule: Q01DX005 (ip), vehicle: distilled water + Tween-80",96 % of control
Cc1ccc2c(c1)Sc1ccc3ccccc3c1N2,T/C,[14],100 % of control
same,T/C,[16],90 % of control
same,T/C,"dose: 200.0 mg/kg/injection, schedule: Q01DX009 (ip), vehicle: saline with Tween-80",109 % of control
same,T/C,[17],100 % of control
same,T/C,"dose: 400.0 mg/kg/injection, schedule: Q01DX009 (ip), vehicle: saline with Tween-80",113 % of control
same,T/C,"dose: 400.0 mg/kg/injection, schedule: Q04DX003 (ip), vehicle: saline with Tween-80",100 % of control
CC#CCOCC(O)CO (centres undefined),T/C,"dose: 12.5 mg/kg/injection, schedule: Q01DX009 (ip), vehicle: water",105 % of control
same,T/C,"dose: 25.0 mg/kg/injection, schedule: Q01DX009 (ip), vehicle: water",108 % of control
same,T/C,"dose: 50.0 mg/kg/injection, schedule: Q01DX009 (ip), vehicle: water",121 % of control
same,T/C,"dose: 67.0 mg/kg/injection, schedule: Q01DX009 (ip), vehicle: water",120 % of control
C=CCNc1ccc(OC)cc1,T/C,"dose: 50.0 mg/kg/injection, schedule: Q04DX003 (ip), vehicle: saline with Tween-80",100 % of control
same,T/C,[16],100 % of control
same,T/C,[17],100 % of control
C=C1C(=O)O[C@@H]2[C@H](O)[C@@H](C)[C@@H]3C=CC(=O)[C@@]3(C)[C@@H](OC(=O)/C(C)=C/C)[C@H]12,T/C,"dose: 1.5 mg/kg/injection, schedule: Q01DX009 (ip), vehicle: saline + alcohol",107 % of control
same,T/C,"dose: 6.0 mg/kg/injection, schedule: Q01DX009 (ip), vehicle: saline + alcohol",118 % of control
same,T/C,"dose: 6.75 mg/kg/injection, schedule: Q01DX009 (ip), vehicle: saline + alcohol",158 % of control
same,T/C,"dose: 8.75 mg/kg/injection, schedule: Q01DX009 (ip), vehicle: saline + alcohol",120 % of control
same,T/C,"dose: 12.0 mg/kg/injection, schedule: Q01DX009 (ip), vehicle: saline + alcohol",116 % of control
same,T/C,"dose: 12.5 mg/kg/injection, schedule: Q01DX009 (ip), vehicle: saline + alcohol",164 % of control
CC(C)(C)OC(=O)n1cnc(CC(NC(=O)OCc2ccccc2)C(=O)O)c1 (centres undefined),T/C,[4],105 % of control
same,T/C,[5],100 % of control
same,T/C,[6],106 % of control
COc1nc(=O)n(C2OC(=O)C(C)(C)C2=O)cc1F (centres undefined),T/C,"dose: 11.25 mg/kg/injection, schedule: Q04DX002 (ip), vehicle: distilled water + Tween-80",100 % of control
same,T/C,"dose: 22.5 mg/kg/injection, schedule: Q04DX002 (ip), vehicle: distilled water + Tween-80",106 % of control
same,T/C,"dose: 45.0 mg/kg/injection, schedule: Q04DX002 (ip), vehicle: distilled water + Tween-80",100 % of control
same,T/C,"dose: 90.0 mg/kg/injection, schedule: Q04DX002 (ip), vehicle: distilled water + Tween-80",106 % of control
same,T/C,"dose: 180.0 mg/kg/injection, schedule: Q04DX002 (ip), vehicle: distilled water + Tween-80",96 % of control
same,T/C,"dose: 360.0 mg/kg/injection, schedule: Q04DX002 (ip), vehicle: distilled water + Tween-80",100 % of control
